According to patent US20240157020A1, “SUTURES” (The Queen's University of Belfast, priority 2021, published 2024):
≈ marks a conversion by molar mass, not a printed value. Read-outs that look alike come from different tables or passages of the source.

Key:
Assay type in all cases: cell-based
[1] = test system: S. aureus NCTC 10788; assay: MIC and MBC determination
Description: (§1) The antimicrobial activity of the THEDES was also assessed by determining the minimum inhibitory concentration (MIC) and the minimum bactericidal concentration (MBC) of MET, MA and the equimolar THEDES, respectively. Concentrations of 6 mg/mL MET, MA and MET-MA 1:1 were used to determine the MIC and MBC values against gram-positive bacteria E. faecalis, S. epidermidis and S. aureus, and gram-negative bacteria P. aeruginosa, E. coli and K. pneumoniae; results are shown in Table 4.

[2] = test system: K. pneumoniae ATCC 700603; assay: MIC and MBC determination; conditions: Klebsiella pneumoniae, ATCC700603
Description: as §1

[3] = test system: S. aureus ATCC 29213; assay: MIC and MBC determination
Description: as §1

[4] = test system: P. aeruginosa ATCC 27853; assay: MIC and MBC determination; conditions: Pseudomonas aeruginosa, ATCC27853
Description: as §1

[5] = test system: E. coli NCTC 8196; assay: MIC and MBC determination; conditions: Escherichia coli, NCTC8196
Description: as §1

[6] = test system: E. faecalis ATCC 29212; assay: MIC and MBC determination; conditions: Enterococcus faecalis, ATCC29212
Description: as §1

[7] = test system: S. epidermidis ATCC 35984; assay: MIC and MBC determination; conditions: Staphylococcus epidermidis, ATCC35984
Description: as §1

[8] = test system: P. aeruginosa NCTC 10783; assay: MIC and MBC determination; conditions: Pseudomonas aeruginosa, NCTC10783
Description: as §1

[9] = test system: S. aureus NCTC 12493 (MRSA); assay: MIC and MBC determination
Description: as §1

[10] = test system: Pseudomonas aeruginosa; assay: Disc diffusion inhibition zone assay; conditions: gentamicin sulphate 10 mg/mL, THEDES neat, average n = 9 ± S.D.
[11] = test system: Klebsiella pneumoniae ATCC 700603; assay: Disc diffusion inhibition zone assay; conditions: gentamicin sulphate 10 mg/mL, THEDES neat, average n = 9 ± S.D.
Description: (§2) The disc diffusion assays were carried out against Staphylococcus aureus (FIG. 7, Gram-positive, frequently found in the upper respiratory tract and on the skin) and Klebsiella pneumoniae (FIG. 8, Gram-negative, facultative anaerobic, typically residing in human intestines and faeces). In general, the calculated inhibition zones of gentamicin sulphate (10 mg/mL) and the neat THEDES were very similar, confirming the antimicrobial activity of the THEDES against both gram-positive and gram-negative bacteria (Table 3).

[12] = test system: Staphylococcus aureus NCTC 10788; assay: Disc diffusion inhibition zone assay; conditions: gentamicin sulphate 10 mg/mL, THEDES neat, average n = 9 ± S.D.
Description: as §2

[13] = Staphylococcus aureus, NCTC10788, S. aureus NCTC 10788
[14] = Staphylococcus aureus, ATCC29213, S. aureus ATCC 29213
[15] = Staphylococcus aureus, S. aureus NCTC 12493 (MRSA)

Compound	MBC [1, 13] [µg/mL]	MBC [2] [µg/mL]	MIC [2] [µg/mL]	MBC [3, 14] [µg/mL]	MBC [4] [µg/mL]	MIC [4] [µg/mL]	MBC [5] [µg/mL]	MIC [5] [µg/mL]	MBC [6] [µg/mL]	MIC [6] [µg/mL]	MBC [7] [µg/mL]	MIC [7] [µg/mL]	MBC [8] [µg/mL]	MIC [8] [µg/mL]	MBC [9, 15] [µg/mL]	also measured
O=C(O)/C=C\C(=O)O [MA, maleic acid]	> 6000	> 6000	> 6000	> 6000	> 6000	6000 (≈ 51.7 mM)	> 6000	6000 (≈ 51.7 mM)	> 6000	6000 (≈ 51.7 mM)	> 6000	6000 (≈ 51.7 mM)	> 6000	6000 (≈ 51.7 mM)	> 6000	MIC ([1]; Staphylococcus aureus, NCTC10788, S. aureus NCTC 10788, read-out: MIC): 6000 µg/mL (≈ 51.7 mM); MIC ([3]; Staphylococcus aureus, ATCC29213, S. aureus ATCC 29213, read-out: MIC): 6000 µg/mL (≈ 51.7 mM); MIC ([9]; Staphylococcus aureus, S. aureus NCTC 12493 (MRSA), read-out: MIC): 6000 µg/mL (≈ 51.7 mM)
Cc1ncc([N+](=O)[O-])n1CCO [MET, metronidazole]	> 6000	6000 (≈ 35.1 mM)	6000 (≈ 35.1 mM)	> 6000	> 6000	> 6000	> 6000	> 6000	> 6000	> 6000	3000 (≈ 17.5 mM)	3000 (≈ 17.5 mM)	> 6000	> 6000	> 6000	MIC ([1]; S. aureus NCTC 10788): 6000 µg/mL (≈ 35.1 mM); MIC ([1]; Staphylococcus aureus, NCTC10788, non-methicillin-resistant S. aureus strain, read-out: MIC): 6000 µg/mL (≈ 35.1 mM); MIC ([3]; S. aureus ATCC 29213): 6000 µg/mL (≈ 35.1 mM); MIC ([3]; Staphylococcus aureus, ATCC29213, non-methicillin-resistant S. aureus strain, read-out: MIC): 6000 µg/mL (≈ 35.1 mM); MIC ([9]; S. aureus NCTC 12493 (MRSA)): >6000 µg/mL; MIC ([9]; Staphylococcus aureus, methicillin-resistant strain of S. aureus (MRSA), read-out: MIC): > 6000 µg/mL
gentamicin sulphate	–	–	–	–	–	–	–	–	–	–	–	–	–	–	–	ZOI Diameter [10]: 26.04 ± 1.75 mm; ZOI Diameter [11]: 24.13 ± 1.09 mm; ZOI Diameter [12]: 46.09 ± 1.69 mm
